Reference: ChEMBL document CHEMBL1131228, “Molecular modeling of phenothiazines and related drugs as multidrug resistance modifiers: a comparative molecular field analysis study” (1998)

The compounds below were run on MCF7-DOX (assay: Anti MDR activity was expressed as MDR ratio or MDR fold reversal in doxorubicin resistant human breast carcinoma tumor cell line MCF-7/DOX).
Type: functional
`CCN(CC)CCC=C1c2ccccc2Sc2ccc(Cl)cc21` gave an MDR ratio of 7.2. Compound `CN(C)CC=C1c2ccccc2Sc2ccc(Cl)cc21` has an MDR ratio of 1.3. Compound `Clc1ccc2c(c1)C(=CCCN1CCCCC1)c1ccccc1S2` has an MDR ratio of 15. For `CN(C)CCC=C1c2ccccc2Sc2ccc(C(F)(F)F)cc21`, the MDR ratio was 2.8. `CN(C)CCCN1c2cc(O)ccc2Sc2cc(O)c(Cl)cc21` showed an MDR ratio of 0.9. Work on `OCCN1CCN(CCCC2c3ccccc3Sc3ccc(Cl)cc32)CC1` (configuration not stated) yielded an MDR ratio of 9.7. Work on `CN(C)CCCN1c2cc(Cl)ccc2Sc2cc(O)c(O)cc21` yielded an MDR ratio of 0.8. `CN(C)CCCN1c2ccccc2Sc2c(Cl)cccc21` was tested, and the MDR ratio was 1.4. For `OCCN1CCN(C/C=C2/c3ccccc3Sc3ccc(Cl)cc32)CC1`, the MDR ratio was 1.6. `CN(C)CCCN1c2ccccc2Sc2cccc(Cl)c21` gave an MDR ratio of 1.3. `Clc1ccc2c(c1)/C(=C\CCN1CCCCC1)c1ccccc1S2` showed an MDR ratio of 6.7. Compound `CN(C)CCCN1c2ccccc2Sc2cc(Cl)ccc21` has an MDR ratio of 1.3. For `CCN(CC)CC/C=C1/c2ccccc2Sc2ccc(Cl)cc21`, the MDR ratio was 4. `CN(C)C/C=C1/c2ccccc2Sc2ccc(Cl)cc21` showed an MDR ratio of 1.1. Compound `CN(C)CCCCN1c2ccccc2Sc2ccc(Cl)cc21` has an MDR ratio of 2. Compound `CSc1ccc2c(c1)N(CCCN(C)C)c1ccccc1S2` has an MDR ratio of 1.5. Work on `CN(C)CC/C=C1/c2ccccc2Sc2ccc(C(F)(F)F)cc21` yielded an MDR ratio of 1.8. `CN(C)CCC=C1c2ccccc2Sc2ccc(Cl)cc21` gave an MDR ratio of 7. With `OCCN1CCN(CC/C=C2/c3ccccc3Sc3ccc(Cl)cc32)CC1` (stereo in doubt; 34) [ZUCLOPENTHIXOL] the MDR ratio was 2.6. Compound `OCCN1CCN(CC/C=C2/c3ccccc3Sc3ccc(Cl)cc32)CC1` (stereo in doubt; 35) [ZUCLOPENTHIXOL] has an MDR ratio of 15. In the case of `CN(C)CCCN1c2ccc(O)cc2Sc2ccc(Cl)cc21` [7-HYDROXYCHLORPROMAZINE], the MDR ratio is reported as 1. Compound `CN(C)CCCN1c2ccccc2[S+]([O-])c2ccc(Cl)cc21` (configuration not stated) [CHLOROPROMAZINE SULFOXIDE] has an MDR ratio of 2.2. `CCN(CC)CCCN1c2ccccc2Sc2ccc(Cl)cc21` [CHLORPROETHAZINE] gave an MDR ratio of 2.2. With `CN(C)CCCN1c2ccccc2Sc2ccc(Cl)cc21` [CHLORPROMAZINE] the MDR ratio was 1.6. Work on `CN(C)CC/C=C1/c2ccccc2Sc2ccc(Cl)cc21` [CHLORPROTHIXENE] yielded an MDR ratio of 2. `CN(C)CCN1c2ccccc2Sc2ccc(Cl)cc21` [CHOLRPHENETHAZINE] was tested, and the MDR ratio was 1.5. Work on `OCCN1CCN(CCCN2c3ccccc3Sc3ccc(C(F)(F)F)cc32)CC1` [FLUPHENAZINE] yielded an MDR ratio of 2.7. With `CN(C)CCCN1c2ccccc2CCc2ccccc21` [IMIPRAMINE] the MDR ratio was 2.5. For `CNCCCN1c2ccccc2Sc2ccc(Cl)cc21` [NOR1-CHLORPROMAZINE], the MDR ratio was 1.2. `NCCCN1c2ccccc2Sc2ccc(Cl)cc21` [NOR2-CHLORPROMAZINE] showed an MDR ratio of 1.1. For `OCCN1CCN(CCCN2c3ccccc3Sc3ccc(Cl)cc32)CC1` [PERPHENAZINE], the MDR ratio was 2. For `CN(C)CCCN1c2ccccc2Sc2ccccc21` [PROMAZINE], the MDR ratio was 1.2. For `CC(CN1c2ccccc2Sc2ccccc21)N(C)C` (configuration not stated) [PROMETHAZINE], the MDR ratio was 1.9. For `CCN(CC)CCCC(C)Nc1c2ccc(Cl)cc2nc2ccc(OC)cc12` (configuration not stated) [QUINACRINE], the MDR ratio was 1.3. `CN1CCN(CCCN2c3ccccc3Sc3ccc(C(F)(F)F)cc32)CC1` [TRIFLUOPERAZINE] showed an MDR ratio of 3.4. Work on `OCCN1CCN(CC/C=C2/c3ccccc3Sc3ccc(C(F)(F)F)cc32)CC1` [Z-FLUPENTIXOL] yielded an MDR ratio of 15.2. FLUPENTIXOL was tested, and the MDR ratio was 4.8.
